In patent publication US8592166B2, “Hypoxia related genes and proteins for the treatment and diagnosis of pregnancy related complications” (Beth Israel Deaconess Medical Center, Inc., priority 2006, dated 2013):

Assays:
pregnant mice = assay: COMT knockout mouse model of pre-eclampsia, administration of 2-ME to pregnant mice; type: in vivo; conditions: administration of 2-ME to mice, FIG. 12
Protocol: FIG. 4 is a schematic of the experimental design for evaluating the role of COMT pre-eclampsia in mice.
FIG. 5 is a graph showing the number of dead embryos on Day 17 of pregnancy in mice with the indicated genotype (WT=wild type; Ko=mice with the COMT gene knocked out; +2me indicates the addition of 2-ME 2 ng/day).

[1] = system: cytotrophoblasts from the placenta; conditions: FIG. 1 and WO 2005/110462; cited from earlier work

COc1cc2c(cc1O)CC[C@@H]1[C@@H]2CC[C@]2(C)[C@@H](O)CC[C@@H]12 [2-ME, 2-methoxyestradiol]
abnormal development (pregnant mice): does not alter the litter size or cause abnormal development
litter size (pregnant mice): does not alter the litter size
expression of HIF-1α [1]: decreases the expression of HIF-1α
expression of VEGF, PlGF, VEGF Receptor 1 (VEGFR1) and sFlt-1 [1]: dramatic decrease
